In patent US12570684B2 (UNIVERSITY OF TENNESSEE RESEARCH FOUNDATION, priority 2020, dated 2026):
“And” between values parts separate entries of the source, which are not always exact repeats. Equal entries are not always repeated. Where two headings read alike, the source gives them in different places.

Columns and labels:
[1] = target: MraY (Hydrogenivirga sp.) (Hydrogenivirga sp. 128-5-R1-1, UniProt Z9Y2G8N0L0); assay: MraY assay; type: biochemical
Experimental: Expression and purification of HyMraY. The gene mraY of Hydrogenivirga spp. 128-5-R1-1 was cloned with a N-terminal His6 tag into a pET22b vector. […] The proteins were purified using a nickel, cation exchange, and size exclusion chromatography.
MraY assay. MraY assay substrates, Park's nucleotide-N^ε-C6-dansylthiourea, neryl phosphate, were chemically synthesized according to the reported procedures.^7 Park's nucleotide-N^ε-C6-dansylthiourea (2 mM stock solution, 1.88 jiL), MgCl2 (0.5 M, 5 jiL), KCl (2 M, 5 jiL), Triton X-100 (0.5%, 5.63 jiL), Tris buffer (pH 8.0, 50 mM), neryl phosphate (0.1 M, 2.25 jiL), and inhibitor molecule (0-50 .ig/mL in Tris buffer) were placed in a 1.5 mL Eppendorf tube. […] (26° C.) and quenched with CHCl3 (100 jiL). […] The aqueous phase was assayed via reverse-phase HPLC.

WecA (E. coli) = WecA (E. coli) (Escherichia coli, UniProt P0AC78); assay: WecA assay
Experimental: Preparation of membrane fraction P-60 containing WecA. E. coli B21 wecA strain were harvested by centrifugation (4,700 rpm) at 4° C. followed by washing with 0.9% saline solution (thrice). The washed cell pellets were washed with homogenization buffer (containing 50 mM K2HPO4, 5 mM MgCl2, 5 mM 1,4-dithio-DL-threitol, and 10% glycerol, pH=7.2) (thrice), and approximately 5 g of pellet (wet weight) was collected. The washed cell pellets were suspended in homogenization buffer and disrupted by probe sonication on ice (5 s on and 2 s off for 1 min, then cool down for 1.5 min., 5 cycles, cool down for 15 min, and then, 5 s on and 2 s off for 1 min., cool down for 1.5 min, 5 cycles). The resulting suspension was centrifuged at 4,700×g for 15 min. at 4° C. to remove unbroken cells. The lysate was centrifuged at 25,000×g for 20 min. at 4° C. The supernatant was subjected to ultracentrifugation at 60,000×g for 1 h at 4° C. The supernatant was discarded, and the membrane fraction containing WecA enzyme (P-60) was suspended in the Tris-HCl buffer (pH=7.5). Total protein concentrations were approximately 8 to 10 mg/mL. Aliquots were stored in Eppendorf tubes at −80° C.

WecA = details: background; cited from earlier work
DPAGT1 (Human) = target: T1, DPAGT1 (Human) (Homo sapiens, UniProt Q9H3H5); assay: DPAGT1 assay; type: biochemical
T1 construct: made in house; host or cells: Expi293 cells (suspension)
T1 sequence (Q9H3H5 1-408): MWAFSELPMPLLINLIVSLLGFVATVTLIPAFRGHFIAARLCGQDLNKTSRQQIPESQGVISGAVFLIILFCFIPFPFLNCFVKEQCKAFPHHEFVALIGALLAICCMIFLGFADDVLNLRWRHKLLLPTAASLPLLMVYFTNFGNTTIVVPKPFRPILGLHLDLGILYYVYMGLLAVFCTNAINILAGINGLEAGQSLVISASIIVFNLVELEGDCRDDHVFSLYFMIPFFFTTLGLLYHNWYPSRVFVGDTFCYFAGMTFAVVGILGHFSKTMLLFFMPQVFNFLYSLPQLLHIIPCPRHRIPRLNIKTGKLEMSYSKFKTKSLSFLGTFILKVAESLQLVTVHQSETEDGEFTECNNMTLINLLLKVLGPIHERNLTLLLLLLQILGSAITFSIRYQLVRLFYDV
Experimental: DPAGT1 expression and purification. DPAGT1 was expressed in suspended Expi293 cells for 36 h. The cells were lysed by drawing through a 26 g needle (10 times) and membrane protein was extracted using buffer containing 1% decyl f3-D-maltopyranoside detergent. DPAGT1 was purified using HA-agarose resin and a superdex 200 size exclusion column.

L1210 = assay: MTT cytotoxicity assay; type: cell-based; details: for IC50: MTT, 72 h
Experimental: (§1) Cell lines. The human primary PDAC cell lines PANC-1 (ATCC CRL 1469); Capan-2 (ATCC HTB-80) and metastatic PDAC cell lines Capan-1 (ATCC HTB-79), AsPC-1 (ATCC CRL-1682), L1210 (ATCC CCL-219), KB (ATCC CCL-17), HeLa, SiHa (ATCC HTB-35), HCT-116 (ATCC CCL-247), DLD-1 (ATCC CCL221), hTERT-HPNE (ATCC CRL-4023), Vero (ATCC CCL-81) were purchased from the ATCC. The cell lines were cultured and maintained in the media as recommended by the supplier. The cell lines were regularly tested for mycoplasma contamination and authenticated. In addition to ATCC cell lines, Dr. Glazer's lab generated patient-derived PDAC cell line, PD002. PD002 Cells were maintained and cultured in DMEM medium supplemented with 20% FBS and 100 IU/mL penicillin and incubated at 37° C. with 5% CO2.
(§2) MTT cytotoxicity assay. To study the effect of treatment with DPAGT1 inhibitors on the growth and proliferation of cells, a fixed number of cells (5×10^4 cells/well, 196 μL) were plated in a 96 well plate. Into each well 5 μL of drug concentration was added. After 72 h of incubation with drugs at 37° C., 5% CO2, 10 μL of MTT solution (5 mg/mL in PBS) was added and incubated another 3 h at 37° C., 5% CO2. The medium was removed, and DMSO (200 μL/well) was added. Viability was assessed on the basis of cellular conversion of MTT into a purple formazan product. The absorbance of the colored formazan product was measured at 570 nm by BioTek Synergy HT Spectrophotometer.

KB = assay: MTT cytotoxicity assay; type: cell-based; details: 72 h
Experimental: as §1, §2

Vero = assay: MTT cytotoxicity assay; type: cell-based; details: for IC50: MTT, 72 h
Experimental: as §1, §2

PD002 [2] = assay: MTT cytotoxicity assay; type: cell-based; details: MTT, 72 h
Experimental: as §1, §2

HPNE = assay: MTT cytotoxicity assay; type: cell-based; details: for IC50: MTT, 72 h
Experimental: as §1, §2

DLD-1 = assay: MTT cytotoxicity assay; type: cell-based
Experimental: as §1, §2

SiHa = assay: MTT cytotoxicity assay; type: cell-based; details: 72 h
Experimental: as §1, §2

HCT-116 = assay: MTT cytotoxicity assay; type: cell-based
Experimental: as §1, §2

Capan-2 = assay: MTT cytotoxicity assay; type: cell-based, human
Experimental: as §1, §2

PANC-1 = assay: MTT cytotoxicity assay; type: cell-based, human
Experimental: as §1, §2

AsPC-1 = assay: MTT cytotoxicity assay; type: cell-based, human
Experimental: as §1, §2

MraY/MurX = MraY/MurX (Mycobacterium tuberculosis, UniProt P9WMW7); details: background; cited from earlier work
cell lines in Table 2 = assay: MTT assays, summary over the cell lines in Table 2; type: cell-based
Experimental: as §1, §2

[3] = tested on: Myocobacterium tuberculosis H37Rv, Mycobacterium avium 2285, Mycobacterium smegmatis (ATCC607); assay: Antimycobacterial activity (MIC); type: cell-based, Mycobacterium spp.; details: at 50 μg/mL
AglH (M. jannaschii) = target: T2, AglH (M. jannaschii) (Methanocaldococcus jannaschii, UniProt Q58513); assay: AglH assay
T2 sequence (Q58513 1-301): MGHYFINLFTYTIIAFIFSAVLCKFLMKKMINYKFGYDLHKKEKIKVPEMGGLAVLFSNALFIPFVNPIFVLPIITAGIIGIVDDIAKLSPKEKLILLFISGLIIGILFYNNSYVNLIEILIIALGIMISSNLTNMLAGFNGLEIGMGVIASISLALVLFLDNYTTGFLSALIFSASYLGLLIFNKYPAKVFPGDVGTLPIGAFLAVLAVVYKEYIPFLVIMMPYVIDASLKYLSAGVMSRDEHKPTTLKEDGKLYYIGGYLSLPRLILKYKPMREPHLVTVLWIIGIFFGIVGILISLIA

PD002 [4] = assay: Scratch (wound healing) assay; type: cell-based; details: 0.2 μM, 24 h; untreated PD002 63%
Experimental: Scratch Assay. A confluent monolayer was formed in 24-well plates. The monolayer was scratched by a sterile 200 μL pipette tip and washed with PBS to remove cell debris. Complete medium with CPPB (5) (0, 0.05, 0.1, 0.2 μM) were added and scratched areas were photographed with microscope. The scratched cells were incubated at 37° C., 5% CO2. After 24 h, medium was removed and cells were stained with a 1:1 mixture of crystal violet and PBS for 5 min., washed with PBS twice, and photographed with microscope. Wound areas were measured and recovered areas were calculated.

mice = details: IP; cited from earlier work
DPAGT1 gene = assay: RT-qPCR analyses of DPAGT1 expression level; type: cell-based; details: PD002
DPAGT1 [5] = assay: Immunofluorescent staining of DPAGT1 expression; type: cell-based
DPAGT1 [6] = details: background; cited from earlier work
MraY = details: background; cited from earlier work

MraY (Hydrogenivirga sp.), sequence (Z9Y2G8N0L0 7-365 limits assumed): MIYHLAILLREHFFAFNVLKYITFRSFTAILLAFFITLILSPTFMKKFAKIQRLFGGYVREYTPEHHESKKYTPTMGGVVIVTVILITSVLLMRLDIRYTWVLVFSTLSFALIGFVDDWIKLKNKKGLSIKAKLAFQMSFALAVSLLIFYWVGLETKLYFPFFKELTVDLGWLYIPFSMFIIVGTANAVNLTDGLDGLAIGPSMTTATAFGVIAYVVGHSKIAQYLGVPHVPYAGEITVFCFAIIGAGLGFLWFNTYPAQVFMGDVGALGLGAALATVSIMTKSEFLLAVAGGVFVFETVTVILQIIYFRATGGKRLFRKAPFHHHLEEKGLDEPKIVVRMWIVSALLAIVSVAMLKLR
WecA (E. coli), sequence (P0AC78 whole entry): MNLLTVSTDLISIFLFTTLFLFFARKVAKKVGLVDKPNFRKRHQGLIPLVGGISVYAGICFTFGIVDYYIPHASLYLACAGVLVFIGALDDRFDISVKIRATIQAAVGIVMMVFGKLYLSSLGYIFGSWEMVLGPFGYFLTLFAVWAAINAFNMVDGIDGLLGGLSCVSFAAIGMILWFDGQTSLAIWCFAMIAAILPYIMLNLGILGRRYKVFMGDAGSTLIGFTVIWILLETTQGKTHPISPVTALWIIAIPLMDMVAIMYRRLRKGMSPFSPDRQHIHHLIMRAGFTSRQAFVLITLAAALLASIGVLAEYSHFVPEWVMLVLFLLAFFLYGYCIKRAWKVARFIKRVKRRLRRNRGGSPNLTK
MraY/MurX, sequence (P9WMW7 whole entry): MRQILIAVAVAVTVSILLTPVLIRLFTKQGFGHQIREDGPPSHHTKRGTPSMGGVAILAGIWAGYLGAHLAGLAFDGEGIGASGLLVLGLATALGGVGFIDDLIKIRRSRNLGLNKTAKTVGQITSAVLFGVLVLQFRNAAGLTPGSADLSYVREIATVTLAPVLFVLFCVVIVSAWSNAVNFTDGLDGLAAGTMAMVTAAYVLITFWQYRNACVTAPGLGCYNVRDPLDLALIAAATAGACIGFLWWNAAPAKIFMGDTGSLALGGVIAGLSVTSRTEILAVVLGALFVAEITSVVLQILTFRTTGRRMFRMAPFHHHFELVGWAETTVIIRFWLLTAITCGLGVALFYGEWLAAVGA

CO[C@H]1[C@@H](OC)[C@H](n2ccc(=O)[nH]c2=O)O[C@@H]1[C@@H](O[C@H]1OC(C(=O)N[C@H]2CCCCNC2=O)=C[C@H](O)[C@@H]1O)C(N)=O [O-Methyl capuramycin]
IC50 [1]: > 50 µM
IC50 (WecA (E. coli); read-out: IC50 WecA (E. coli)): 0.06 µM
IC50 (WecA): ~0.06 µM
IC50 (DPAGT1 (Human)): 4.5 µM
IC50 (DPAGT1 (Human); listed as OM-CAP): 3.5 µM
IC50 (L1210): > 50 µM
IC50 (KB): > 50 µM
IC50 (Vero): > 50 µM
IC50 (PD002 [2]): > 50 µM
IC50 (HPNE): > 50 µM
IC50 (DLD-1; 72 h): > 50 µM
IC50 (SiHa): > 50 µM
IC50 (HCT-116; 72 h): > 50 µM
IC50 (Capan-2; 72 h): > 50 µM
IC50 (PANC-1; 72 h): > 50 µM
IC50 (AsPC-1; 72 h): > 50 µM
MraY/MurX inhibitory activity (in words) (MraY/MurX): does not exhibit MraY/MurX inhibitory activity

CO[C@@H]1[C@H](O)[C@@H]([C@@H](O[C@H]2OC(C(=O)NCc3ccc(N4CCC(Oc5ccc(OC(F)(F)F)cc5)CC4)cc3)=C[C@H](O)[C@@H]2O)C(N)=O)O[C@H]1n1ccc(=O)[nH]c1=O
MraY inhibitory activity (in words) [1]: did not display MraY inhibitory activity
WecA inhibitory activity (in words) (WecA (E. coli)): very weak
IC50 (cell lines in Table 2; KB, SiHa, HCT-116, DLP-1, Capan-2, PANC-1, AsPC-1, PD002, MTT assays, read-out: IC50 range, growth inhibition of solid cancer cell lines): 15 to 40 µM
DPAGT1 inhibitory activity (in words) (DPAGT1 (Human)): high nM range DPAGT1 inhibitors
antiproliferative activity against L1210 (L1210; at 50 μM): did not show antiproliferative activity
IC50 (KB; Homo sapiens, KB): 35 µM
IC50 (Vero; Chlorocebus sabaeus, Vero): > 50 µM
antiproliferative activity against Vero (Vero; at 50 μM, normal kidney cell): did not show antiproliferative activity
IC50 (PD002 [2]; PD002): 50 µM
IC50 (HPNE; HPNE): > 50 µM
antiproliferative activity against HPNE (HPNE; at 50 μM, normal pancreatic ductal cell): did not show antiproliferative activity
IC50 (DLD-1; Homo sapiens, DLD-1, 72 h): 35 µM
IC50 (SiHa; Homo sapiens, SiHa): 25 µM
IC50 (HCT-116; Homo sapiens, HCT-116, 72 h): 25 µM
IC50 (Capan-2; Homo sapiens, Capan-2, 72 h): 40 µM
IC50 (PANC-1; Homo sapiens, PANC-1, 72 h): 45 µM
IC50 (AsPC-1; Homo sapiens, ASPC1, 72 h): 30 µM
growth inhibitory activity against Mycobacterium spp. [3]: did not show growth inhibitory activity
AglH inhibitory activity (in words) (AglH (M. jannaschii)): very weak

Tunicamycin
IC50 [1]: 2.9 µM
wound-healing rate (PD002 [4]): 35%
IC50 (WecA (E. coli); read-out: IC50 WecA (E. coli)): 0.15 µM
LD100 (mice): 3.5 mg/kg
LDs50 (mice): 2.0 mg/kg
DPAGT1 gene expression (DPAGT1 gene): decreased
IC50 (WecA): 0.15 µM
IC50 (cell lines in Table 2; all cell lines in Table 2, read-out: IC50 range, growth inhibition of all cell lines in Table 2): 0.78 to 7.5 µM and 0.45 to 7.5 µM
IC50 (DPAGT1 (Human)): 1.5 µM
DPAGT1 protein expression (DPAGT1 [5]): decreased
IC50 (DPAGT1 [6]): 2.5 µM
IC50 (L1210): 1.7 µM
IC50 (KB): 2.5 µM
IC50 (Vero): 0.78 µM
IC50 (PD002 [2]): 1.5 µM
IC50 (HPNE): 7.5 µM
IC50 (DLD-1; 72 h): 1.25 µM
IC50 (SiHa): 0.92 µM
IC50 (HCT-116; 72 h): 0.92 µM
IC50 (Capan-2; 72 h): 1.5 µM
IC50 (PANC-1; 72 h): 1.5 µM
IC50 (AsPC-1; 72 h): 0.45 µM
IC50 (MraY/MurX): 3.38 µM
IC50 (AglH (M. jannaschii); read-out: IC50 AglH (M. jannaschii)): 13.2 µM

CO[C@H]1[C@@H](O)[C@H](n2ccc(=O)[nH]c2=O)O[C@@H]1[C@@H](O[C@H]1OC(C(=O)N[C@H]2CCCCNC2=O)=C[C@H](O)[C@@H]1O)C(N)=O [Capuramycin]
IC50 [1]: 0.13 µM
MraY inhibitory activity (in words) [1]: selective MraY inhibitor
IC50 (WecA (E. coli)): > 50 µM
WecA inhibitory activity (in words) (WecA (E. coli)): does not display inhibitory activity
IC50 (MraY): 0.15 µM
DPAGT1 inhibitory activity (in words) (DPAGT1 (Human)): does not display inhibitory activity
IC50 (L1210; Mus musculus, L1210): > 50 µM
IC50 (KB; Homo sapiens, KB): > 50 µM
IC50 (Vero; Chlorocebus sabaeus, Vero): > 50 µM
IC50 (PD002 [2]; PD002): > 50 µM
IC50 (HPNE; HPNE): > 50 µM
IC50 (DLD-1; Homo sapiens, DLD-1, 72 h): > 50 µM
IC50 (SiHa; Homo sapiens, SiHa): > 50 µM
IC50 (HCT-116; Homo sapiens, HCT-116, 72 h): > 50 µM
IC50 (Capan-2; Homo sapiens, Capan-2, 72 h): > 50 µM
IC50 (PANC-1; Homo sapiens, PANC-1, 72 h): > 50 µM
IC50 (AsPC-1; Homo sapiens, ASPC1, 72 h): > 50 µM
AglH inhibitory activity (in words) (AglH (M. jannaschii)): does not display inhibitory activity
IC50 (AglH (M. jannaschii)): > 50 µM
